# Data taken from patent publication US20100179188A1, “NITROXIDE RADICAL AS TREATMENT FOR NEURODEGENERATION” (Office of Technology Transfer, NIH, priority 2007, published 2010).
# What was measured:
# [1] = target: T1, IRP1 (Mus musculus, UniProt P28271); assay: IRE-binding activity of IRP1 in IRP2−/− embryonic fibroblasts (gel shift); format: cell-based; parameters: Embryonic fibroblasts of 13-day old embryos were isolated from wild type, IRP1−/− mice and IRP2−/− mice; endogenous in cells; host or cells: mouse embryonic fibroblasts (wild type and IRP2−/−); settings: 0.3 and 1.0 mM, 16 h
# T1 sequence (P28271 1-889): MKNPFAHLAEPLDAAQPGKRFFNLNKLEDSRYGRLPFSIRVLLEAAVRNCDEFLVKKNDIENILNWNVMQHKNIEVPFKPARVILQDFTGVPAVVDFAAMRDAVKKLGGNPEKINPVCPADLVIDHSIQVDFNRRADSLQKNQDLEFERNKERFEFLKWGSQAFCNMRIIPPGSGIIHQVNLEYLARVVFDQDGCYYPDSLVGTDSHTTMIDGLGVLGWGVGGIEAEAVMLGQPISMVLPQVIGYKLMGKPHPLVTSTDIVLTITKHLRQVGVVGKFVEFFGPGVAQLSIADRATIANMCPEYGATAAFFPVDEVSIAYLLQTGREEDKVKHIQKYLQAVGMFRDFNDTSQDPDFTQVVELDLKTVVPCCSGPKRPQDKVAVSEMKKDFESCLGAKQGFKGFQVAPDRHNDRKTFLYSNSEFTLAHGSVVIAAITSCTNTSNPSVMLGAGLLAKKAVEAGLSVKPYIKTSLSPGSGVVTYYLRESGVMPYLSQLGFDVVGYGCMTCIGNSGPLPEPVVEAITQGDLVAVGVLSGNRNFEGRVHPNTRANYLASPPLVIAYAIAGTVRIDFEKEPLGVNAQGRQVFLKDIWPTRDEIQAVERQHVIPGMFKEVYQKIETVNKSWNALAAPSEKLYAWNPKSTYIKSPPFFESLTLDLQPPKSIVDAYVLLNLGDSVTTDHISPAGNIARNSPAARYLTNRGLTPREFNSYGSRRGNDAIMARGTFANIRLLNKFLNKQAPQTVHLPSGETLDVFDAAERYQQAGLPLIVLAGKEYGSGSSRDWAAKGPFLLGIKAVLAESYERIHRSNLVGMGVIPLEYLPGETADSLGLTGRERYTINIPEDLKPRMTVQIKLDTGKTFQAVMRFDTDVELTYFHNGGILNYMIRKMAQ
# Method: Cells: Embryonic fibroblasts of 13-day old embryos were isolated from wild type, IRP1−/− mice and IRP2−/− mice as described in LaVaute et al. supra. Myc-tagged HEK 293 Tet-on cell line, in which IRP2 expression was inducible, was prepared and cultured as described Bourdon et al., Blood Cells Mol Dis, 31, 247-255 (2003). Erythroblasts were harvested from bone marrow and purified as described in Cooperman et al., Blood, 106, 1084-1091 (2005).
# RNA mobility shift assays: Gel retardation assays were performed as described in Meyron-Holtz et al., EMBO J, 23, 386-395 (2004). Tissue lysates were prepared in an anaerobic chamber as described above in oxygen-depleted lysis buffer containing 10 mM HEPES (pH 7.2), 3 mM MgC12, 40 mM KCl, 5% glycerol, 0.2% Nonidet P-40, 5 mM DTT, 1 mM AEBSF, 10 μg/ml. Leupeptin and complete TM EDTA free protease inhibitor cocktail (Roche Applied Science, Indiana). […]
# To study the effect of Tempo1 on the IRE-binding activity of IRP1, IRP2−/− embryonic fibroblasts that were maintained in culture supplemented with 0, 0.3 and 1.0 mM Tempo1, with or without ferric ammonium citrate (FAC), for 16 h. […] Quantification was performed with the IQMac (IRP1 activity) or NIH Image (protein levels) program. Error bars represent the standard deviation calculated from the results of two different sets of experiments.
# [2] = test system: IRP1+/− IRP2−/− mice; assay: Hang-test of IRP1+/− IRP2−/− mice on Tempo1-supplemented diet; format: in vivo; settings: FIG. 7c
# Method: (§1) Diet: The mice were weaned 3-4 weeks after their birth. Immediately after weaning, mice were maintained on either a Tempo1-supplemented or control diet. In the Tempo1-supplemented diet, powdered Tempo1 was uniformly mixed with bacon-flavored mouse chow by a “cold press” technique (Bio-Serv, Frenchtown, N.J., USA) at a concentration of 10 mg/g of food. Bacon-flavored chow without Tempo1 was used as the control diet.
# Hang-test: In the hang-test, mice were allowed to grip a wire mesh that was then inverted. The length of time that a mouse could hang on to an inverted wire mesh before falling (up to a maximum of 60 seconds) was measured and recorded.
# Hang-test results of WT, IRP2−/− and IRP1+/− IRP2−/− mice that indicated IRP1+/− IRP2−/− animals were more symptomatic than IRP2−/− animals. […] Error bars represent standard error of the mean. The curves were drawn by using the polynomial curve fit of the KaleidaGraph program.
# [3] = test system: ferritin; assay: Immunohistochemistry of ferritin in hippocampus and cortex; format: in vivo; settings: hippocampus and cortex of IRP2−/− mice
# Method: as §1
# Immunohistochemistry: Paraffin-embedded tissue sections were boiled in a micro oven for 15 min for antigen retrieval in 10 mM citrate buffer pH 6.4 after dewaxing and rehydrating. The sections were blocked in blocking buffer (Tris-buffered saline pH 7.4, 5% nomial goat serum, 0.1% Tween-20) for 30 min, then were incubated with polyclonal rabbit anti-ferritin antibody for 2 h at room temperature, the protein-antibody complex was labeled by CY3-donkey anti-rabbit antibody (Jackson ImmunoResearch Laboratories, Inc., West Grove, Pa.), nuclei were labeled by DAPI as counterstaining. The slides were observed and the pictures were recorded with Nikon Eclipse E600 fluorescence microscope.
# Immunohistochemical studies were performed to analyze ferritin expression in the hippocampus and cortexregions of the mouse brains. […] The overexpression of ferritin decreased with Tempo1 treatment.
smiles,measurement,setting,value
CC1(C)CC(O)CC(C)(C)N1[O] [Tempo1],IRE-binding activity of IRP1,[1],activate IRP1
same,prevention of disease progression (hang-test),[2],did not significantly (p=0.559) prevent
same,overexpression of ferritin,[3],decreased
